This note sets out measurements from patent publication US20250243219A1, “MACROCYCLIC COMPOUNDS AND USES THEREOF” (Cypralis Limited, priority 2022, published 2025).

Molecules are shown by their SMILES.

The target of one assay is cyclophilin D (Homo sapiens (Human), UniProt P30405). The assay can be described thus: Functional peptidyl prolyl isomerase (PPIase) spectrophotometric assay, cyclophilin D. As to conditions: second value of CypA/D cell; read-out: Ki CypD. It counts as biochemical. An excerpt:
(§1) Cyclophilins are enzymes that catalyse the cis-trans isomerisation of peptide bonds to the amino acid proline. This event is important in many biological processes, including protein folding and signal transduction. […] The method to measure this activity and its inhibition is similar to that described by Jankowski (Analytical Biochemistry, 252, 2, 299-307 (1997)). The assay measures the cis to trans isomerisation of a peptide substrate catalysed by a PPlase enzyme using a UV/Vis spectrophotometer. This assay is a manual single cuvette-based assay. A first order rate equation is fitted to the absorbance data to obtain a rate constant. The catalytic rate is calculated from the enzymatic rate minus the background rate. The Ki (the concentration required to produce half maximum inhibition) for an inhibitor is obtained from the rate constant plotted against the inhibitor concentration. Typically, a 6-point dose response curve is obtained from duplicates and a Ki determined. Data are given in Table 5 as Ki [nM] for cyclophilins A and D, expressed in column 2 of Table 5 as Ki (cypA)/Ki (cypD).

Assay [1] deals with permeabilised HepG2 cells. As to the kind of experiment: Calcium retention capacity (CRC) assay in permeabilised HepG2 cells (MPTP opening). Format: cell-based, human. Also noted: CRC [10 μM]: unit not given here. The conditions noted are these: compound at 10 μM; for CRC [10 μM]: digitonin permeabilised HepG2 cells; for CRC [10 μM] (ratio vs CsA): normalised to cyclosporin A, value in brackets. The protocol:
The use of permeabilised cells means that inhibitory compounds that may not normally enter non-permeabilised cells are more likely to be active.
The calcium retention capacity (CRC) is a measure of the capability of mitochondria to retain calcium, primarily in the form of calcium phosphates, in the mitochondrial matrix.
In a CRC assay, the calcium indicator Calcium Green-5N (InVitrogen) is utilized. […] The assay is carried out in HepG2 (human hepatocellular carcinoma) cells which are digitonin permeabilized. Trains of calcium pulses (typically 5 μM additions) are added which results in a sudden increase in fluorescence which is then reduced by mitochondrial buffering. The cells will reach a point at which the calcium addition is no longer buffered, an indication that the MPTP has opened (mitochondrial permeability transition).
The experiment is performed with and without inhibitor. A compound that acts to inhibit the mitochondrial pore opening will result in a greater requirement for calcium to reach the transition point. The results are normalised to a positive control (cyclosporin A) in each experiment. The results are shown in column 3 of Table 5 as CRC [10 μM] (ratio vs CsA). The method of digitonin permeabilised whole cell CRC assay is similar to that used by Chiara et al. (PLoS One, March, 3, 3, e1852 (2008)).

A further assay has as its system SH-SY5Y cells. As to the kind of experiment: Thapsigargin treated cell death assay in SH-SY5Y cells. Format: cell-based, human. The conditions noted are these: compound at 10 μM; positive = protection from cell death, negative = compound toxicity. The source says:
Thapsigargin raises intracellular free calcium (Ca^2+) by potently inhibiting the endoplasmic reticulum Ca-ATPase, which sequesters Ca^2+ from the cytosol. The increased cytosolic Ca^2+ concentration is buffered by mitochondria by exchanging Ca^2+ for K, leading to depolarisation in the inner mitochondrial membrane and permeability transition.
The thapsigargin treated Jurkat cell death assay is a homogeneous 96 well plate based assay for cell death, instigated by the opening of the mitochondrial permeability transition pore (MPTP). The addition of thapsigargin to Jurkat cells results in an influx of calcium, the increase in intracellular calcium will initially be buffered by the mitochondria, but eventually the increasing calcium concentration will result in the opening of the MPTP, resulting in cell death.
CellTox™ Green is a dye which is unable to enter the cell until cell death leads to the loss of membrane integrity. Once this happens the CellTox™ Green enters the cell, binds to the cell's DNA and emits a fluorescent signal. […] Unless otherwise stated, the assay is typically run using a range of three compound concentrations of 1, 3 and 10 μM in triplicate and is read kinetically over a period of 24 hours. Compounds are added 30 minutes before the addition of thapsigargin. Compound only controls and positive control, cyclosporin A (CsA) (3 and 10 μM) are also included in the assay. Results are typically calculated at the 8 hour time point and the kinetic data is also reported.
The assay is carried out as described for the Jurkat cells but using the SH-SY5Y (human neuroblastoma) cell line instead of Jurkat cells. The results are shown in the fourth column of Table 5 (SY5Y [10 μM]% recovery). Positive numbers indicate protection from cell death, negative numbers indicate compound toxicity.

The target of the next assay is cyclophilin A (Homo sapiens (Human), UniProt P62937). The assay can be described thus: Functional peptidyl prolyl isomerase (PPIase) spectrophotometric assay, cyclophilin A. Format: biochemical. The conditions noted are these: first value of CypA/D cell.
Sequence of cyclophilin A (P62937 whole entry, species assumed): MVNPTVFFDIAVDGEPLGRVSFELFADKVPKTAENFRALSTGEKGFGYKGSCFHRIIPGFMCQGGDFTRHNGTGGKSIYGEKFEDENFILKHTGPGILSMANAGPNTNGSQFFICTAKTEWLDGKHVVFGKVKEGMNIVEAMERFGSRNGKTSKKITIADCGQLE
Source text: as §1

Sequence of cyclophilin D (P30405 30-207, species assumed): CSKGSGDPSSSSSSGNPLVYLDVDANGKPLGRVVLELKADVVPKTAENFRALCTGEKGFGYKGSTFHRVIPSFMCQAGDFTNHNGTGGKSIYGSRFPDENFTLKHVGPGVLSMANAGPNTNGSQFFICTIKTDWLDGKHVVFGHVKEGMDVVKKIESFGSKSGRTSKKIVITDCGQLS

For the molecule `CC(C)[C@@H]1OC(=O)[C@@](C)(Cc2ccccc2)/C=C/c2ccc3ccc(nc3c2)N(C)NC(=O)[C@@H]2CCCN(N2)C(=O)[C@H](C)NC1=O` [Compound (17)], the Ki on cyclophilin D was 9 nM; on cyclophilin A, 1.7 nM. The “CRC [10 μM]” value in assay [1] is listed as 33.3. Also, the “CRC [10 μM] (ratio vs CsA)” value in assay [1] is 0.95. Besides, the “SYSY [10 μM] % recovery” value with SH-SY5Y cells was 87.8%.
For `CC(C)[C@@H]1OC(=O)C2(/C=C/c3ccc4ccc(nc4c3)N(C)NC(=O)[C@@H]3CCCN(N3)C(=O)[C@H](C)NC1=O)CCCC2` [Compound (21)], in that order: 6.1 nM, 2.5 nM, 32.5, 0.93 and 33.8%.
For `CC(C)[C@@H]1NC(=O)C(C)(C)/C=C/c2ccc3ccc(nc3c2)N(C)NC(=O)[C@@H]2CCCN(N2)C(=O)[C@H](C)NC1=O` [Compound (22)], in that order: 27 nM, 13 nM, 25, 0.83 and 4%.
For `CC(C)[C@@H]1CC(=O)C(C)(C)/C=C/c2ccc3ccc(nc3c2)N(C)NC(=O)[C@@H]2CCCN(N2)C(=O)[C@H](C)NC1=O` [Compound (25)], in that order: 6.2 nM, 17.5 nM, 20, 0.8 and 26.2%.
As to `C[C@@H]1NC(=O)[C@H](CC2CCCNC2)NC(=O)C(C)(C)/C=C/c2ccc3ccc(nc3c2)N(C)NC(=O)[C@@H]2CCCN(N2)C1=O` (stereo partly drawn) [Compound (35)], the Ki at cyclophilin D was determined as 1100 nM. Further, in assay [1], the “CRC [10 μM]” value turned out to be 10 and the “CRC [10 μM] (ratio vs CsA)” value came to 0.41. Further, the “SYSY [10 μM] % recovery” value with SH-SY5Y cells worked out at 37%. On cyclophilin A, this molecule came in with a Ki of 1100 nM.
In the case of `C[C@@H]1NC(=O)[C@H](C[C@@H]2CCCN(C)C2)OC(=O)C(C)(C)/C=C/c2ccc3ccc(nc3c2)N(C)NC(=O)[C@@H]2CCCN(N2)C1=O` [Compound (36)], the Ki on cyclophilin D was found to be 1400 nM. For the same molecule, in assay [1], the “CRC [10 μM]” value was 7.5 and the “CRC [10 μM] (ratio vs CsA)” value is reported as 0.42. Also, the “SYSY [10 μM] % recovery” value in the assay on SH-SY5Y cells was found to be 19%. On cyclophilin A, the Ki worked out at 390 nM.
For `C[C@@H]1NC(=O)[C@H](C[C@H]2CCCN(C)C2)OC(=O)C(C)(C)/C=C/c2ccc3ccc(nc3c2)N(C)NC(=O)[C@@H]2CCCN(N2)C1=O` [Compound (37)], in that order: 160 nM, 5, 0.33, 41% and 150 nM.
With `C[C@@H]1NC(=O)C(Cc2ccc(N)nc2)OC(=O)C(C)(C)/C=C/c2ccc3ccc(nc3c2)N(C)NC(=O)[C@@H]2CCCN(N2)C1=O` (stereo partly drawn) [Compound (43)], the Ki at cyclophilin D came out at 40 nM; at cyclophilin A, 44 nM. In assay [1], the “CRC [10 μM]” value was 10. Also, the “CRC [10 μM] (ratio vs CsA)” value in assay [1] was found to be 0.67. The “SYSY [10 μM] % recovery” value in the assay with SH-SY5Y cells was determined as 10%.
For `C[C@@H]1NC(=O)[C@H](Cc2ccc(NS(C)(=O)=O)cc2)OC(=O)C(C)(C)/C=C/c2ccc3ccc(nc3c2)N(C)NC(=O)[C@@H]2CCCN(N2)C1=O` [Compound (46)], in that order: 2.5 nM, 3 nM, 25, 1.00 and 29%.

Usually Ki stands for the dissociation constant of the complex between target and ligand, obtained from inhibition or displacement.
